The values below come from ChEMBL document CHEMBL3991601, “The target landscape of clinical kinase drugs” (Science, 2017).

Each structure is given as a SMILES string. Activity calls are given as the source filed them. Cut-off read from the data, not from the text of the source, for most assays here: actives have a measured Kd and inactives only a lower limit.

Experiment [1] deals with T1, Mitogen-activated protein kinase kinase kinase 6 (Homo sapiens, UniProt O95382).
T1 sequence (O95382 whole entry): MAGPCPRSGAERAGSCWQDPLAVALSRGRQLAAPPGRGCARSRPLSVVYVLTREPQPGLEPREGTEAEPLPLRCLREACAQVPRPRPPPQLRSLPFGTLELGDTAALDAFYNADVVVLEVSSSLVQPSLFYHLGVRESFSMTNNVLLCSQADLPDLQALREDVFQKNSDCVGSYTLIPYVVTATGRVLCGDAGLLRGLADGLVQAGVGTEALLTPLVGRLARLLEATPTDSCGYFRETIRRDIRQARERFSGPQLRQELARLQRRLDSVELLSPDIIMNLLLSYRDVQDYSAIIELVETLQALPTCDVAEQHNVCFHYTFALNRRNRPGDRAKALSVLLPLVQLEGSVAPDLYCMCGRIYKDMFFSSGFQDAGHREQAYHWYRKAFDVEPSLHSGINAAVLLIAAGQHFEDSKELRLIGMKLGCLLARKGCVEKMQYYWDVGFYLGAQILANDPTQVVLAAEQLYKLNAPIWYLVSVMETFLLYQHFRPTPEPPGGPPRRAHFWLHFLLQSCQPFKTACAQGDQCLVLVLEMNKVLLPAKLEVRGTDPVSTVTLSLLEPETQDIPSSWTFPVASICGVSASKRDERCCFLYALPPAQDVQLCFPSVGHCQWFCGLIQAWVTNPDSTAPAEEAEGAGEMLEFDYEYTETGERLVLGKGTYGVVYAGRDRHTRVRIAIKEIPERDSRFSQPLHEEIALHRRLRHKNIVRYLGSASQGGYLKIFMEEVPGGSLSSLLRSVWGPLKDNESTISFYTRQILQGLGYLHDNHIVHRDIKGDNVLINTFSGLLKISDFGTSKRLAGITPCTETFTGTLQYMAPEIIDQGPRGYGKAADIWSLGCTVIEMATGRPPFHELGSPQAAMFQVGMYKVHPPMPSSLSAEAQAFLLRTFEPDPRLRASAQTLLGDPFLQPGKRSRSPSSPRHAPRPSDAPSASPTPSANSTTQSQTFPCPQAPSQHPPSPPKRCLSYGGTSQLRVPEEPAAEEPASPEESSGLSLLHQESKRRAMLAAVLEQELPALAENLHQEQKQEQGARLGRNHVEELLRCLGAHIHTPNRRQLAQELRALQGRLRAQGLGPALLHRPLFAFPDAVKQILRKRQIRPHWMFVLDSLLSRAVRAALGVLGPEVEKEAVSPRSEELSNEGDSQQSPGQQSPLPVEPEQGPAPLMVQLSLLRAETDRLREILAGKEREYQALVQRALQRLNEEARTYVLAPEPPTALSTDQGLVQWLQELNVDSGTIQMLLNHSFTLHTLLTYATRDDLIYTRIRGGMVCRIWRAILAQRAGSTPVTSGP

Experiment [2] addresses MAP/microtubule affinity-regulating kinase 3 (Homo sapiens, UniProt P27448).
Experiment [3] deals with Cyclin-dependent kinase 6 (Homo sapiens, UniProt Q00534).
Sequence of Cyclin-dependent kinase 6 (Q00534 whole entry): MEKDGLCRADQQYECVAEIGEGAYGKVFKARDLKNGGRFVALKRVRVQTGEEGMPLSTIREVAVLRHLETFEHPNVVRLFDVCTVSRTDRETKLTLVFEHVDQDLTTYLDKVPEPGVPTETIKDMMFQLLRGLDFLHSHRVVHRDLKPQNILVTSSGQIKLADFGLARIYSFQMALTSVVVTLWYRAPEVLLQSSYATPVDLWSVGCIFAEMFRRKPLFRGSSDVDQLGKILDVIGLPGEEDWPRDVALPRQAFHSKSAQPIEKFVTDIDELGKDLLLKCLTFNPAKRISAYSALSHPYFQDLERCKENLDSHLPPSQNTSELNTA
Experiment [4] deals with Epidermal growth factor receptor (Homo sapiens, UniProt P00533).
Sequence of Epidermal growth factor receptor (P00533 whole entry): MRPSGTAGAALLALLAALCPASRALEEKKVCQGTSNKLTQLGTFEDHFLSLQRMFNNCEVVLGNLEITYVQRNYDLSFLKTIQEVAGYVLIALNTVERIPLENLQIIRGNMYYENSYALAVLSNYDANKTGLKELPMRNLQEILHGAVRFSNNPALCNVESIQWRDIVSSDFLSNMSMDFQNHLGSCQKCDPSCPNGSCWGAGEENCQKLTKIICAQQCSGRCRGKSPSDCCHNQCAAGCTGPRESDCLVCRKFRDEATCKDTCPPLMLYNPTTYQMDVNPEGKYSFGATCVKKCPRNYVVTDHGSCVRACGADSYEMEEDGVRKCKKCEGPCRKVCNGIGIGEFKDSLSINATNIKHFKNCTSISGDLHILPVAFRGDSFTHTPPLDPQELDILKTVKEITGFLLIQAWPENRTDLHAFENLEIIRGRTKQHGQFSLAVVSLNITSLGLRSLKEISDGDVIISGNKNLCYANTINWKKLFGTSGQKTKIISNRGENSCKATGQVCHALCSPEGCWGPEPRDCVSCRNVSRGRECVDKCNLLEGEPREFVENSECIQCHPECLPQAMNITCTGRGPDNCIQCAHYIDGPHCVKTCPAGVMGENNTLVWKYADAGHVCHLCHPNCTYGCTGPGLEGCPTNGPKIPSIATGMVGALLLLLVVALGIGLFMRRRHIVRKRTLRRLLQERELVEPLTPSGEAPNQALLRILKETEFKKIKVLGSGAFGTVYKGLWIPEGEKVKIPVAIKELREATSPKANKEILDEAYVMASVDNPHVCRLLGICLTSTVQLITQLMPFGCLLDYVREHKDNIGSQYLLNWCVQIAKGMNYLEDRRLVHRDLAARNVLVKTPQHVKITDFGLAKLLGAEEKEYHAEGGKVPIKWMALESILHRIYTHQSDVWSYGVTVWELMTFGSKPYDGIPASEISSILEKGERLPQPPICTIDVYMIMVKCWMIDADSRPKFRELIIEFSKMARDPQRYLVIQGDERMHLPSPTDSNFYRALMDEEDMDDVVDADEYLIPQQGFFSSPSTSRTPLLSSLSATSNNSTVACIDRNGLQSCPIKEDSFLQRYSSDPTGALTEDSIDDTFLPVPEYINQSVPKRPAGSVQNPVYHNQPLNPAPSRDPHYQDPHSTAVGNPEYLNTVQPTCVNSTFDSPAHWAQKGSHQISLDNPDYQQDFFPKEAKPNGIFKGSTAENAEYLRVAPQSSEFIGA
Experiment [5] addresses T2, Dual specificity mitogen-activated protein kinase kinase 5 (Homo sapiens, UniProt Q13163).
T2 sequence (Q13163 whole entry): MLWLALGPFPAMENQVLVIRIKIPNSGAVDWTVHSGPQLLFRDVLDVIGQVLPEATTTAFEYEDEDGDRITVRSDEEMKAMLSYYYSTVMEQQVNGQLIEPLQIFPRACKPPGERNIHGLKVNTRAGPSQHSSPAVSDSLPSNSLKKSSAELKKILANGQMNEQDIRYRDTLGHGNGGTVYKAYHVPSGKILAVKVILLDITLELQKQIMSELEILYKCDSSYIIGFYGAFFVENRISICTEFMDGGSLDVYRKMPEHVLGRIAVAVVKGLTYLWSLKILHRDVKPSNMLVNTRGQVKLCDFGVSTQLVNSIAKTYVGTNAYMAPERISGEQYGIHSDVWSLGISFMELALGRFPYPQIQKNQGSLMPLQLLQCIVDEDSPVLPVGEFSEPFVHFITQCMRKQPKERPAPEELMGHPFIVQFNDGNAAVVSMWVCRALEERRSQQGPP

Experiment [6] concerns the target Ribosomal protein S6 kinase alpha-3 (Homo sapiens, UniProt P51812).
Experiment [7] deals with T3, MAP kinase-activated protein kinase 5 (Homo sapiens, UniProt Q8IW41).
T3 sequence (Q8IW41 whole entry): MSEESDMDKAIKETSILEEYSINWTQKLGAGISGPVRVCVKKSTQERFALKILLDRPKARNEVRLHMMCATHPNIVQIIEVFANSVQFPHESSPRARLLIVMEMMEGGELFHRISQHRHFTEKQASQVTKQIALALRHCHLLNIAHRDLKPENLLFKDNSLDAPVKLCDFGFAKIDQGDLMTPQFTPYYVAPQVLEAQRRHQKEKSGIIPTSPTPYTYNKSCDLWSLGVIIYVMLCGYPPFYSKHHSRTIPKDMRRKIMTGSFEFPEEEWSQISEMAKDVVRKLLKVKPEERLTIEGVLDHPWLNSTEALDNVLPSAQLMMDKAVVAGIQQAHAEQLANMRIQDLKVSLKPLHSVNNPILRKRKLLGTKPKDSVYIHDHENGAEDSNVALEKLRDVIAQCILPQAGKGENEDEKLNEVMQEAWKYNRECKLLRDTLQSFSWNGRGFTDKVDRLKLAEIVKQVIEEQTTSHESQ

Experiment [8] has as its target Adenylate kinase 2, mitochondrial (Homo sapiens, UniProt P54819).
Experiment [9] has as its target Tyrosine-protein kinase Yes (Homo sapiens, UniProt P07947).
Experiment [10] deals with T4, STE20-related kinase adapter protein alpha (Homo sapiens, UniProt Q7RTN6).
T4 sequence (Q7RTN6 whole entry): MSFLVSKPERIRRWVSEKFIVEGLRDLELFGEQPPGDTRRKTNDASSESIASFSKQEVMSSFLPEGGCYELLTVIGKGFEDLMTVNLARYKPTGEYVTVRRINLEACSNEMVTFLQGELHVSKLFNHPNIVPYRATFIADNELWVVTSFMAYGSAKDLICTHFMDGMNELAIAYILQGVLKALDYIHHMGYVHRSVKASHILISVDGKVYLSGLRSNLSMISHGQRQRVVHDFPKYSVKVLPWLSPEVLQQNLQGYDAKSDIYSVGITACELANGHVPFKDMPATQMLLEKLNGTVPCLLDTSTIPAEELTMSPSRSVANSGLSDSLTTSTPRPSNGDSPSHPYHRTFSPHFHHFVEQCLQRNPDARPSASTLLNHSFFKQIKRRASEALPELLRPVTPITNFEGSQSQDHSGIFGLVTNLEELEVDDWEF
Note: in the data inactive means no Kd found up to 30 µM.

Sequence of Tyrosine-protein kinase Yes (P07947 whole entry): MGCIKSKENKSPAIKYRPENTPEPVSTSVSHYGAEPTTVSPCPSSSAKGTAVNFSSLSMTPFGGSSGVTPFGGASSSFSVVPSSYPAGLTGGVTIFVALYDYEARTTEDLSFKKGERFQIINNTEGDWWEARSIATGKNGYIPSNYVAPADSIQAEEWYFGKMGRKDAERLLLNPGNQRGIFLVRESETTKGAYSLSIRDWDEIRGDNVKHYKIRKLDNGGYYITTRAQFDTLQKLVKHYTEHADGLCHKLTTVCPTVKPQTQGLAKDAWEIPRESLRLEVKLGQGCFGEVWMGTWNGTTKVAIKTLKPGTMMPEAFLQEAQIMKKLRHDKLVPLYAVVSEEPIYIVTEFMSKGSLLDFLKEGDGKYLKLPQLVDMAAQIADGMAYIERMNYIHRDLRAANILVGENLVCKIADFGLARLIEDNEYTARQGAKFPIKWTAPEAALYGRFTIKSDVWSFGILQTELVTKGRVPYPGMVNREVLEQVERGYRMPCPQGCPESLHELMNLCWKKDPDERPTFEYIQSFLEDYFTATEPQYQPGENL
Sequence of MAP/microtubule affinity-regulating kinase 3 (P27448 whole entry): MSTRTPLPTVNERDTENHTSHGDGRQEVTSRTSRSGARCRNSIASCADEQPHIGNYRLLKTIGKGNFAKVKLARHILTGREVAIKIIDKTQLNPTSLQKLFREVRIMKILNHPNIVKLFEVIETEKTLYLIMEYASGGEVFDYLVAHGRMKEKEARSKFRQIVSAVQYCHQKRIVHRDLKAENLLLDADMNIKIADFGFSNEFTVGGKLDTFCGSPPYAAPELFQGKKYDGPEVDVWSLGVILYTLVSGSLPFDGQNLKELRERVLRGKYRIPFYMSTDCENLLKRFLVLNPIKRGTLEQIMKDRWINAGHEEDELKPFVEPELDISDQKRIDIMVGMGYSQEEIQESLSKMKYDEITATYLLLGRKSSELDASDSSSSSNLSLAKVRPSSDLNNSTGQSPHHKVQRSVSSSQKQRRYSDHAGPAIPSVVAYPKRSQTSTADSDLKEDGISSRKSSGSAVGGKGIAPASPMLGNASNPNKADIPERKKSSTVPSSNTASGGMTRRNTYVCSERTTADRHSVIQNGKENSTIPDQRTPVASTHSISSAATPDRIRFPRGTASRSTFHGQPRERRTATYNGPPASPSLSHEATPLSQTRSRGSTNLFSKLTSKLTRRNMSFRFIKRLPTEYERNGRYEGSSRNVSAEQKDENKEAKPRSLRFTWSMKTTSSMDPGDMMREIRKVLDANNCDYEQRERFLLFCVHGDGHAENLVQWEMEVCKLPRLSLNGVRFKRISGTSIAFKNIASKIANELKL
Sequence of Ribosomal protein S6 kinase alpha-3 (P51812 whole entry): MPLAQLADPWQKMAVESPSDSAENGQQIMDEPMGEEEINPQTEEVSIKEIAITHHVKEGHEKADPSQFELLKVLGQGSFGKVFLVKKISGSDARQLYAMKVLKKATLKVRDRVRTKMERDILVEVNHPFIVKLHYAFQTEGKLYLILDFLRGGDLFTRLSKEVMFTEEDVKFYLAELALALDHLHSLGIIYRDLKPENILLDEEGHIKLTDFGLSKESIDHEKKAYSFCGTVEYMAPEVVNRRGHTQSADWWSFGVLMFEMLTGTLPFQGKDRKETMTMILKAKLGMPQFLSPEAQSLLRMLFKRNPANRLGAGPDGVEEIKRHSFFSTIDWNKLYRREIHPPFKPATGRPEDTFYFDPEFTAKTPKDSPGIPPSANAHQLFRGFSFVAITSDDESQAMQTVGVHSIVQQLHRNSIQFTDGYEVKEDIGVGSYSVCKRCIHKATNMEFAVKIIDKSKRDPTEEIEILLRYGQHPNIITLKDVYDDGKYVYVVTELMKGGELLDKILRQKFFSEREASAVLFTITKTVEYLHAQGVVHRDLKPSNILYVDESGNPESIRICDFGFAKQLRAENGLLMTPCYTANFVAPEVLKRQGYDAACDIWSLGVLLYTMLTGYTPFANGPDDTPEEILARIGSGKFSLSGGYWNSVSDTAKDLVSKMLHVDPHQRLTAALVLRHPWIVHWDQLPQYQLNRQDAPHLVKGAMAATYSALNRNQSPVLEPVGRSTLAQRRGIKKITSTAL

`CN(C[C@@H]1COCCO1)S(=O)(=O)Nc1ccc2ccc3ncc(-c4cnn(C)c4)cc3c(=O)c2c1` [MK-2461]: the Kd in experiment [1], in [2], in experiment [3], in [4], in experiment [5] and in [6] was > 30 µM (inactive) each time. Moreover, the Kd in [7], in experiment [8], in [9] and in [10] was > 30 µM (inactive) throughout.
With `Cn1cc(-c2cnc3ccc4ccc(CS(=O)(=O)NCc5ccccn5)cc4c(=O)c3c2)cn1` [MK-8033], the Kd in experiment [1], in experiment [2], in [3], in [4], in [5] and in [6] was > 30 µM (inactive) throughout. Moreover, the Kd in experiment [7], in experiment [8], in [9] and in [10] was > 30 µM (inactive) in each case.
As to `FC(F)(F)c1ccc(/C=C/c2nc(COc3ccc(CCCCn4ccnn4)cc3)co2)cc1` [MUBRITINIB], the Kd in experiment [1], in experiment [2], in [3], in experiment [4], in experiment [5] and in [6] was > 30 µM (inactive) throughout. Moreover, the Kd in [7], in [8], in [9] and in experiment [10] was > 30 µM (inactive) throughout.
`COc1ncc(-c2ccc3nccc(-c4ccnnc4)c3c2)cc1NS(=O)(=O)c1ccc(F)cc1F` [OMIPALISIB]: the Kd in experiment [1], in [2], in experiment [3], in experiment [4], in [5] and in experiment [6] was > 30 µM (inactive) each time. The Kd in experiment [7], in experiment [8], in [9] and in experiment [10] was > 30 µM (inactive) each time.
For the compound `CCCCCCCCCCCCCCCCCCOP(=O)([O-])OC1CC[N+](C)(C)CC1` [PERIFOSINE], the Kd in [1], in experiment [2], in [3], in experiment [4], in experiment [5] and in experiment [6] was > 30 µM (inactive) in each case. The Kd in experiment [7], in experiment [8], in experiment [9] and in [10] was > 30 µM (inactive) each time.
For `Cc1nc(Nc2n[nH]c3c2CN(C(=O)N[C@H](CN(C)C)c2ccccc2)C3(C)C)c2sccc2n1` [PF-03758309], the Kd was > 30 µM (inactive) in experiment [1]; 0.105 µM (active) in experiment [2]; > 30 µM (inactive) in experiment [3]; > 30 µM (inactive) in experiment [4]; > 30 µM (inactive) in [5]; 0.1 µM (active) in [6]. Also, the Kd in [7] is > 30 µM (inactive); in experiment [8], > 30 µM (inactive); in experiment [9] it was 5.56 µM (active); in experiment [10] it was > 30 µM (inactive).
With `Cc1cnc(NC(=O)Nc2cc(Br)c(C)cc2OC[C@@H]2CNCCO2)cn1` [RABUSERTIB], the Kd in experiment [1], in experiment [2], in experiment [3], in [4], in experiment [5] and in experiment [6] was > 30 µM (inactive) each time. Also, the Kd in experiment [7], in experiment [8], in [9] and in [10] was > 30 µM (inactive) in each case.
In the case of `CO[C@H]1C[C@@H]2CC[C@@H](C)[C@@](O)(O2)C(=O)C(=O)N2CCCC[C@H]2C(=O)O[C@H]([C@H](C)C[C@@H]2CC[C@@H](OP(C)(C)=O)[C@H](OC)C2)CC(=O)[C@H](C)/C=C(\C)[C@@H](O)[C@@H](OC)C(=O)[C@H](C)C[C@H](C)/C=C/C=C/C=C/1C` [RIDAFOROLIMUS], the Kd in [1], in experiment [2], in experiment [3], in experiment [4], in [5] and in experiment [6] was > 30 µM (inactive) in each case. The Kd in experiment [7], in experiment [8], in [9] and in experiment [10] was > 30 µM (inactive) each time.
As to `N#CC1(c2ccc(NC(=O)c3cccnc3NCc3ccncc3)cc2)CCCC1` [RIVOCERANIB], the Kd in experiment [1], in experiment [2], in [3], in experiment [4], in experiment [5] and in experiment [6] was > 30 µM (inactive) throughout. Further, the Kd in experiment [7], in [8], in [9] and in [10] was > 30 µM (inactive) each time.
On to `O=c1[nH]ccc2cc(OC3CCNCC3)ccc12` [SAR-407899 FREE BASE], for which the Kd in experiment [1], in experiment [2], in [3], in [4], in experiment [5] and in [6] was > 30 µM (inactive) in each case. For the same compound, the Kd in experiment [7], in experiment [8], in experiment [9] and in experiment [10] was > 30 µM (inactive) in each case.
